Laboratory results as given in article PMC7049619 (Acta Pharmaceutica Sinica. B, 2019).
Several values for one entry are separate records, joined by “and”; a condition that tells them apart may be missing. Equal entries are not always repeated.

Columns and labels:
HIV-1IIIB = assay: Anti-HIV-1 activity; type: cell-based; conditions: for SI (selectivity index): ratio CC50/EC50, C8166 cells, Table 1; for times more potent than NVP: C8166, Table 1 EC50
[1] = Cytotoxicity in C8166 cells by MTT method; conditions: human
[2] = test system: K103N/Y181C double mutant HIV-1 strain; conditions: cited from earlier work
HIV-1Ba-L = assay: Anti-HIV-1Ba-L activity, luciferase gene expression assay in TZM-bl cells; type: cell-based; conditions: Human immunodeficiency virus 1, TZM-b1
[3] = Cytotoxicity in TZM-bl cells; type: cell-based; conditions: human
HIV-1TC-1 = type: cell-based; conditions: Human immunodeficiency virus 1, PBMC, HIV-1TC-1, PBMC; Table 2
HIV-1WAN = type: cell-based; conditions: Human immunodeficiency virus 1, PBMC
Cytotoxicity in PBMC = type: cell-based; conditions: human, PBMC (peripheral blood mononuclear cells)
HIV-1_74V = assay: Anti-HIV-1 activity against resistant strain HIV-1_74V in C8166 cells; type: cell-based; conditions: Human immunodeficiency virus 1, C8166
HIV-1RF/V82F/184V = assay: Anti-HIV-1 activity against resistant strain HIV-1RF/V82F/184V in C8166 cells; type: cell-based; conditions: Human immunodeficiency virus 1, C8166
HIV-1A17 (K103N + Y181C) = assay: Anti-HIV-1 activity against resistant strain HIV-1A17; type: cell-based; conditions: Human immunodeficiency virus 1, C8166
recombinant HIV-1 RT = recombinant HIV-1 RT (Human immunodeficiency virus type 1 group M subtype B, UniProt P04585); assay: Enzymatic recombinant HIV-1 RT activity assay; type: biochemical
[4] = test system: HIV-1 laboratory adapted strains and primary isolated strains; type: cell-based; conditions: HIV-1IIIB, HIV-1Ba-L and HIV-1TC-1; Table 2 EC50
in vivo = conditions: male, Sprague-Dawley, rat, plasma

For `Cc1cn([C@H]2C[C@H](N=[N+]=[N-])[C@@H](CO)O2)c(=O)[nH]c1=O` [AZT, zidovudine, reference compound], the “SI (selectivity index)” value (HIV-1IIIB) was >22,472 and the CC50 at 3 days [1] was greater than 200000 nM.
In the case of `Cc1cc(C#N)cc(C)c1Oc1nc(Nc2ccc(C#N)cc2)nc(N)c1Br` [ETR, etravirine, reference compound], the “SI (selectivity index)” value (HIV-1IIIB) is listed as 19,628, the EC50 [2] is listed as 50 nM and the CC50 at 3 days [1] is listed as 27500 ± 5690 nM.
For `CCc1c(CC2CCCCC2)nc(SCc2cc(-c3ccccc3)[nH]n2)[nH]c1=O` [I-01, 6-(Cyclohexylmethyl)-5-ethyl-2-(((5-phenyl-1H-pyrazol-3-yl)methyl)thio)pyrimidin-4(3H)-one], the “times more potent than NVP” value (HIV-1IIIB) was “about 10 times”.
In the case of `CCc1c(CC2CCCCC2)nc(SCc2cc(-c3cccc(C)c3)[nH]n2)[nH]c1=O` [I-02, 6-(Cyclohexylmethyl)-5-ethyl-2-(((5-(m-tolyl)-1H-pyrazol-3-yl)methyl)thio)pyrimidin-4(3H)-one], the “SI (selectivity index)” value (HIV-1IIIB) is reported as 1120 and the CC50 at 3 days [1] is reported as 82800 ± 2200 nM.
With `CCc1c(CC2CCCCC2)nc(SCc2cc(-c3ccc(C)cc3)[nH]n2)[nH]c1=O` [I-07, 6-(Cyclohexylmethyl)-5-ethyl-2-(((5-(p-tolyl)-1H-pyrazol-3-yl)methyl)thio)pyrimidin-4(3H)-one] the “SI (selectivity index)” value (HIV-1IIIB) was 1748 and the CC50 at 3 days [1] was 91400 ± 1900 nM.
For `CCc1c(CC2CCCCC2)nc(SCc2cc(-c3ccc(O)cc3)[nH]n2)[nH]c1=O` [I-11, 6-(Cyclohexylmethyl)-5-ethyl-2-(((5-(4-hydroxyphenyl)-1H-pyrazol-3-yl)methyl)thio)pyrimidin-4(3H)-one], the “times more potent than NVP” value (HIV-1IIIB) was “about 10 times”, the EC50 (HIV-1Ba-L) was 48.5 ± 6.8 nM and the CC50 at 3 days [3] was 77100 ± 3680 nM. The EC50 (HIV-1TC-1) was 14.5 ± 0.1 nM, the EC50 (HIV-1WAN) was 56.6 ± 2.4 nM and the CC50 (Cytotoxicity in PBMC) was 46800 ± 5200 nM. It also gave an EC50 (HIV-1_74V) of 46.2 ± 23.7 nM, an EC50 (HIV-1RF/V82F/184V) of 54.1 ± 23.1 nM and an EC50 (HIV-1A17 (K103N + Y181C)) of 2770 ± 820 nM. For the same compound, the IC50 (recombinant HIV-1 RT) was 1090 ± 590 nM, the “times more potent than NVP” value [4] was 5–14 times and the AUC(0-inf) (in vivo; iv, 1 mg/kg) was 2630 ng·h/mL. It also gave an AUC(0-t) (in vivo; iv, 1 mg/kg) of 2600 ng·h/mL, a Cmax (in vivo; iv, 1 mg/kg) of 7180 ng/mL and an MRT inf (in vivo; iv, 1 mg/kg) of 33.2 min. For the same compound, the Vd (in vivo; iv, 1 mg/kg) was 0.213 L/kg, the clearance (in vivo; iv, 1 mg/kg) was 6.4 mL/min/kg and the half-life (in vivo; iv, 1 mg/kg) was 72 min. The bioavailability (in vivo; oral, 5 mg/kg) was 10.4%, the AUC(0-inf) (in vivo; po, 5 mg/kg) was 1370 ng·h/mL and the AUC(0-t) (in vivo; po, 5 mg/kg) was 1300 ng·h/mL. For the same compound, the CL/F (in vivo; po, 5 mg/kg) was 63.8 mL/min/kg, the Cmax (in vivo; po, 5 mg/kg) was 1.54 µM and 654 ng/mL and the MRT (in vivo; po, 5 mg/kg) was 33.2 min. The Tmax (in vivo; po, 5 mg/kg) was 30 min and the half-life (in vivo; po, 5 mg/kg) was 150 min.
`CCc1c(CC2CCCCC2)nc(SCc2cc(-c3ccc(SC)cc3)[nH]n2)[nH]c1=O` [I-12, 6-(Cyclohexylmethyl)-5-ethyl-2-(((5-(4-(methylthio)phenyl)-1H-pyrazol-3-yl)methyl)thio)pyrimidin-4(3H)-one] showed an EC50 (HIV-1Ba-L) of 193 ± 26.1 nM, a CC50 at 3 days [3] greater than 200000 nM and an EC50 (HIV-1TC-1) of 55.4 ± 11.2 nM. For the same compound, the EC50 (HIV-1WAN) was 165 nM, the CC50 (Cytotoxicity in PBMC) was greater than 200000 nM and the EC50 (HIV-1_74V) was 88.1 ± 17.9 nM. It also gave an EC50 (HIV-1RF/V82F/184V) of 219 ± 46.5 nM, an EC50 (HIV-1A17 (K103N + Y181C)) of 4870 ± 2710 nM and an IC50 (recombinant HIV-1 RT) of 2270 ± 120 nM.
With `CCc1c(CC2CCCCC2)nc(SCc2n[nH]c(-c3ccc(Cl)c(Cl)c3)c2Cl)[nH]c1=O` [I-32, 2-(((4-Chloro-5-(3,4-dichlorophenyl)-1H-pyrazol-3-yl)methyl)thio)-6-(cyclohexylmethyl)-5-ethyl-pyrimidin-4(3H)-one] the “SI (selectivity index)” value (HIV-1IIIB) was 544 and the CC50 at 3 days [1] was 190000 ± 13900 nM.
With `O=c1cc(CC2CCCCC2)nc(SCc2cc(-c3ccccc3)[nH]n2)[nH]1` [I-38, 6-(Cyclohexylmethyl)-2-(((5-phenyl-1H-pyrazol-3-yl)methyl)thio)pyrimidin-4(3H)-one] the “SI (selectivity index)” value (HIV-1IIIB) was 16 and the CC50 at 3 days [1] was 79100 ± 5340 nM.
Work on `Cc1ccnc2c1NC(=O)c1cccnc1N2C1CC1` [NVP, nevirapine, reference compound] yielded an EC50 (HIV-1Ba-L) of 166 ± 46.5 nM, a CC50 at 3 days [3] greater than 200000 nM and an EC50 (HIV-1TC-1) of 199 ± 48.7 nM. The EC50 (HIV-1WAN) was 77 ± 19.3 nM, the CC50 (Cytotoxicity in PBMC) was greater than 200000 nM and the EC50 (HIV-1_74V) was 76.8 ± 19.3 nM. For the same compound, the EC50 (HIV-1RF/V82F/184V) was 61.4 ± 8.5 nM and the EC50 (HIV-1A17 (K103N + Y181C)) was 20200 ± 3100 nM.
